Laboratory results from patent US20160030510A1, “METHODS OF TREATING ALZHEIMER'S DISEASE AND OTHER TAUOPATHIES WITH INHIBITORS OF MICROTUBULE AFFINITY REGULATING KINASE” (The Board of Trustees of the Leland Stanford Junior …, priority 2012, published 2016).
Where a SMILES comes first, the peptide text is derived from it.

Assays:
Human MARK4 = target: T1, Human MARK4 (Homo sapiens, UniProt Q96L34); assay: In vitro kinase assay of MARK4 phosphorylating tau (Western blot); assay type: biochemical; conditions: human MARK4 and tau affinity-purified from HEK293 cells, FIG. 7
T1 construct: made in house; host or cells: HEK293 cells
T1 sequence (Q96L34 1-752): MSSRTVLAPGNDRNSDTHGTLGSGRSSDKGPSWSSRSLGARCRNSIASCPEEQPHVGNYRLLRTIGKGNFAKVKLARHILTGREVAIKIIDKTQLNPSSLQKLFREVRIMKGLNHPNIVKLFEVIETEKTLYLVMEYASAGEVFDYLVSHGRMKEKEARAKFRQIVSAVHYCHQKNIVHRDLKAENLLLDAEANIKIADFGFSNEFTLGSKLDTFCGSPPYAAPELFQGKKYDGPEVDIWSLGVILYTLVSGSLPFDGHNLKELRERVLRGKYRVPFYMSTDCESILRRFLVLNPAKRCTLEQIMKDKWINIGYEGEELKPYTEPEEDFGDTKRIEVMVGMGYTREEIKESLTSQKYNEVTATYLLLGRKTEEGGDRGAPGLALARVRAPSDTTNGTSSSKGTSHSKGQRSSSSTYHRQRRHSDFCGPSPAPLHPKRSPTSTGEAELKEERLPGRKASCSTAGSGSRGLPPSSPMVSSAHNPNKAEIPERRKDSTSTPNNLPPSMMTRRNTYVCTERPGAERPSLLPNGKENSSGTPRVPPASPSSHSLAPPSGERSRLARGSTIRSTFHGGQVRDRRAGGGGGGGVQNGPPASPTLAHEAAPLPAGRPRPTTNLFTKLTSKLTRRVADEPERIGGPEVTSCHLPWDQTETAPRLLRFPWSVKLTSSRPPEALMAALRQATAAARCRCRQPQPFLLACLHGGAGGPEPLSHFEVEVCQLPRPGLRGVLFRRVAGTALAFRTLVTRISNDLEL
From the text: Both human MARK4 and tau proteins were expressed in HEK293 cells and affinity-purified by immunoprecipitation. After in vitro kinase reaction in the presence or absence of the peptides, the reaction mixtures were separated on SDS-PAGE to separate the proteins, and the levels of total tau and phospho-tau generated by MARK4 were detected by Western blot analysis. The TAT peptide was used as a negative control. Note the inhibition of MARK4-mediated tau phosphorylation by both TAT-MKI and MKI-TAT.
We next tested the ability of the TAT-MKI and MKI-TAT fusions to inhibit the activity of MARK4 kinase in phosphorylating the tau protein (FIG. 7). Human MARK4 and tau proteins were expressed in HEK293 cells and affinity-purified by immunoprecipitation. In vitro kinase reactions were performed in the presence or absence of the TAT-MKI and MKI-TAT fusion peptides and the levels of total tau and phospho-tau generated by MARK4 were detected by Western blot analysis. The TAT peptide was used as a negative control. Both the TAT-MKI and MKI-TAT fusion peptides inhibited MARK4-mediated tau phosphorylation in vitro.

[1] = tested on: MARK4-mediated tau phosphorylation; assay: Tau phosphorylation in brain of mouse PS19 transgenic tauopathy model (P301S mutant human tau); assay type: in vivo; conditions: PS19 mice, IP 40 mg/kg/day for 5 days, FIG. 10
Method: Three PS19 transgenic mice (ID number: 9, 10, 11) were subjected to daily IP injection with MKI-TAT peptide (dissolved in 100% DMSO, 40 mg/kg/day) for 5 days. At the end of 5-day injection, the animals were anesthetized with 4% isoflurine and decapitated. The brain tissues were collected immediately, flash-frozen in liquid nitrogen and stored at −80° C. For analysis of effect of MKI-TAT on tau phosphorylation, brain tissues were homogenized in lysis buffer, separated on SDS-PAGE, and probed with the indicated antibodies.
Three PS19 transgenic mice (ID number: 9, 10, 11) were subjected to daily intraperitoneal injection with MKI-TAT peptide (dissolved in 100% DMSO, 40 mg/kg/day) for 5 days. At the end of the 5-day injection period, the animals were anesthetized with 4% isoflurine and decapitated. The brain tissues were collected immediately, flash-frozen in liquid nitrogen, and stored at −80° C. For analysis of the effects of MKI-TAT on tau phosphorylation, brain tissues were homogenized in lysis buffer, separated on SDS-PAGE, and probed with antibodies against pS262-tau, PHF-1, tau, and actin.

5×FAD mouse = assay: Activity Chamber assay in 5×FAD Alzheimer's disease mouse model; assay type: in vivo; conditions: 5×FAD mice, daily IP for 5 days, FIGS. 11A-11H
From the text: The 5×FAD mouse, a well-accepted transgenic model of Alzheimer's disease, was used to test the therapeutic efficacy of MKI-TAT in vivo. The 5×FAD model mouse overexpresses APP with the K670N/M671L (Swedish mutation), I716V (Florida mutation), and V717I (London mutation), and PS1 with the M146L and L286V mutations. […] These defects were rescued by the daily delivery of MKI-TAT through IP for 5 days. At the end of the 5 day treatment, the wild type animals treated with vehicle, and 5×FAD mice treated with vehicle or MKI-TAT were subjected to the Activity Chamber assay. Total ambulatory count (FIG. 11A), total stereotypic count (FIG. 11B), total vertical count (FIG. 11C), total session time (FIG. 11D), total ambulatory time (FIG. 11E), total stereotypic time (FIG. 11F), total vertical time (FIG. 11G), and total zone entry (FIG. 11H) were evaluated.
Activity Chamber assays were performed to evaluate the effects of MKI-TAT in rescuing motor behavioral defects in an Alzheimer's disease mouse model. The 5×FAD mouse, a well-accepted transgenic model of Alzheimer's disease, was used to test the therapeutic efficacy of MKI-TAT in vivo. The 5×FAD model mouse overexpresses APP with the K670N/M671L (Swedish mutation), I716V (Florida mutation), and V717I (London mutation), and PS1 with the M146L and L286V mutations. […]

CC(=O)NCC(=O)N[C@@H](Cc1ccccc1)C(=O)N1CCC[C@H]1C(=O)N[C@@H](CC(C)C)C(=O)N[C@@H](CCCCN)C(=O)N[C@@H](CCCNC(=N)N)C(=O)N[C@@H](Cc1c[nH]cn1)C(=O)N[C@@H](CC(=O)O)C(=O)NCC(=O)N[C@H](C(=O)N[C@@H](CC(=O)O)C(=O)N[C@@H](CC(=O)O)C(=O)N[C@@H](CC(C)C)C(=O)N[C@@H](CO)C(=O)N[C@@H](CCCCN)C(=O)N[C@H](C(=O)NCC(=O)NCC(=O)N[C@@H](Cc1ccc(O)cc1)C(=O)NCC(=O)N[C@@H](CCCNC(=N)N)C(=O)N[C@@H](CCCCN)C(=O)N[C@@H](CCCCN)C(=O)N[C@@H](CCCNC(=N)N)C(=O)N[C@@H](CCCNC(=N)N)C(=O)N[C@@H](CCC(N)=O)C(=O)N[C@@H](CCCNC(=N)N)C(=O)N[C@@H](CCCNC(=N)N)C(=O)N[C@@H](CCCNC(=N)N)C(N)=O)C(C)C)C(C)C [MKI-TAT] (Ac-GFPLKRHDGVDDLSKVGGYGRKKRRQRRR-NH2)
MARK4-mediated tau phosphorylation in vitro (Human MARK4): inhibited
Phospho-tau recognized by the PHF-1 antibody in brain [1]: reduced
level of MARK4-mediated tau phosphorylation recognized by the pS262-tau antibody in brain [1]: significantly reduced
total tau level in brain [1]: largely unchanged
motor behavioral defects (time in zones, average velocity, rearing time, session time, zone entry) (5×FAD mouse): rescued
